# Active and inactive are the calls of the source. The rule behind the calls is not given here.
# Experiments:
# [1] = biological target: T1, Short transient receptor potential channel 3 (Homo sapiens) (UniProt Q13507); assay: Antagonist activity at human TRPC3 expressed in HEK293 cells assessed as inhibition of carbachol-induced activity at 10 uM measured after 48 hrs by Whole-cell patch clamp electrophysiology relative to control; type: cell-based; settings: filed as antagonist
# T1 sequence (whole entry): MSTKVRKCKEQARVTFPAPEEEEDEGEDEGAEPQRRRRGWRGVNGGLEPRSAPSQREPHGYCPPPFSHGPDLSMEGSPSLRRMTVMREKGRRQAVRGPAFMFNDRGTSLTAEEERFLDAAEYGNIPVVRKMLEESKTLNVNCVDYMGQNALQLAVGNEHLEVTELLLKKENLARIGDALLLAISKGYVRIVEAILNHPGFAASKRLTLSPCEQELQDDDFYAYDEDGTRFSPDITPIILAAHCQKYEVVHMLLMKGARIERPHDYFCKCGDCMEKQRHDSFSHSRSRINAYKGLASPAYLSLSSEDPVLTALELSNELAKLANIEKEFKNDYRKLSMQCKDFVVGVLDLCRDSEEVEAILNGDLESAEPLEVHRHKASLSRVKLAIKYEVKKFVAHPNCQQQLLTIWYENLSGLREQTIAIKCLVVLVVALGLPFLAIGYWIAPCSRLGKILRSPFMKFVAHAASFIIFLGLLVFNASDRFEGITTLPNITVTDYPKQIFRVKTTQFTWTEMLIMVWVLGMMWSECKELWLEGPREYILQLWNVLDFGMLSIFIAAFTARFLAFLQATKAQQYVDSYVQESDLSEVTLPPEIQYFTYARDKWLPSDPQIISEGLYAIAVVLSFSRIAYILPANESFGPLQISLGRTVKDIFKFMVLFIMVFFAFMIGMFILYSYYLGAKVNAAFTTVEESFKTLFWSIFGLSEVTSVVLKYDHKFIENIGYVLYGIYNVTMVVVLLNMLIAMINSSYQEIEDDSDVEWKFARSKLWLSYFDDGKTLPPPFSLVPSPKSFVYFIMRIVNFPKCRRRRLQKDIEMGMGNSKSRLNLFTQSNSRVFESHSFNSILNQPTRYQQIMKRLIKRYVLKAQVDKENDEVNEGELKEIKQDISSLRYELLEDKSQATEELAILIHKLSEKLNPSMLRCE
# [2] = biological target: T2, Short transient receptor potential channel 6 (Homo sapiens) (UniProt Q9Y210); assay: Antagonist activity at human TRPC6 expressed in HEK293 cells assessed as inhibition of carbachol-induced activity at 10 uM measured after 48 hrs by Whole-cell patch clamp electrophysiology; type: cell-based
# T2 sequence (whole entry): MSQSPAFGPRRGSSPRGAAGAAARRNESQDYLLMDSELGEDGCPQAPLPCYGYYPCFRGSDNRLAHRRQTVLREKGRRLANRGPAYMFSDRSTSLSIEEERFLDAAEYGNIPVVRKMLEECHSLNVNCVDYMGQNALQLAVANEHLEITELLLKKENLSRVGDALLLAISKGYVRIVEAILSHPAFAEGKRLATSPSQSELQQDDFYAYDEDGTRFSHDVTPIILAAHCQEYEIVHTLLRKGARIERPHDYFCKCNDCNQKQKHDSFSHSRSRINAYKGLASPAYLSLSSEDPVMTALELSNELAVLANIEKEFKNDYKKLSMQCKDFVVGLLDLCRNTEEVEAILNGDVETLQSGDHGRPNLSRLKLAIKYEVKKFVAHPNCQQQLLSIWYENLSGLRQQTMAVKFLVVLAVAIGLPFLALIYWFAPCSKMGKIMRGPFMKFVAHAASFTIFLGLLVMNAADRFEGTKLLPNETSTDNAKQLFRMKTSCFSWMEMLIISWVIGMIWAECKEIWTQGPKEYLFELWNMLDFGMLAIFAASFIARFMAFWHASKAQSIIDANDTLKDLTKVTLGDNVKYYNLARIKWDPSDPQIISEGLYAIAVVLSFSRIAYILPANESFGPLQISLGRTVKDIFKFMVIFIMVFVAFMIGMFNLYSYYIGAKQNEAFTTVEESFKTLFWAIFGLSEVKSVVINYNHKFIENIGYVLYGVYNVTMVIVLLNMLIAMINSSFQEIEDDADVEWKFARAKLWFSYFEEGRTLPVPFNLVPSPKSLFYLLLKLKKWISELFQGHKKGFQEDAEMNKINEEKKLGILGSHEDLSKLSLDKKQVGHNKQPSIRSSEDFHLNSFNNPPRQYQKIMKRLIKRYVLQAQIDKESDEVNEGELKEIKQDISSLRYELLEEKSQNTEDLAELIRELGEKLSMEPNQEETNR
# [3] = biological target: Short transient receptor potential channel 1 (Mus musculus) (UniProt Q61056); assay: Antagonist activity at mouse TRPC1 expressed in HEK293 cells assessed as inhibition of carbachol-induced activity at 10 uM measured after 48 hrs by Whole-cell patch clamp electrophysiology; type: cell-based
# [4] = biological target: Short transient receptor potential channel 1 (Rattus norvegicus) (UniProt Q9QX01); assay: Antagonist activity at rat TRPC1 expressed in HEK293 cells assessed as inhibition of carbachol-induced activity at 10 uM measured after 48 hrs by Whole-cell patch clamp electrophysiology; type: cell-based
# [5] = biological target: Transient receptor potential cation channel subfamily M member 8 (Rattus norvegicus) (UniProt Q8R455); assay: Antagonist activity at rat TRPM8 expressed in HEK293 cells assessed as inhibition of carbachol-induced activity at 10 uM measured after 48 hrs by Whole-cell patch clamp electrophysiology; type: cell-based
# [6] = Kinetic solubility of the compound in ph 7.4 PBS buffer measured after 24 hrs shaken by HPLC and UPLC system; type: physicochemical; settings: read-out: Kinetic_solubility
# [7] = Metabolic stability in human liver microsomes assessed as half life measured up to 60 mins by LC-MS/MS analysis; type: ADME, Microsome; settings: 1 h
# [8] = Metabolic stability in human liver microsomes assessed as intrinsic clearance measured up to 60 mins by LC-MS/MS analysis; type: ADME, Microsome; settings: 1 h
# [9] = Metabolic stability in mouse liver microsomes assessed as half life measured up to 60 mins by LC-MS/MS analysis; type: ADME, Microsome; settings: 1 h
# Cytochrome P450 3A4 = Cytochrome P450 3A4 (Homo sapiens, UniProt P08684); assay: Inhibition of human liver microsomes CYP3A4-M measured after 10 mins incubation by LC-MS analysis; type: ADME, Microsome
# Hippocampal neurone [10] = assay: (§1) Rescuing beta-amyloid induced neuronal cell damage in Sprague-Dawley rat primary hippocampal cell culture (composed of 60% primary neuron, 20% microglia and 20% astrocyte) assessed as decrease in soluble oligomeric Abeta-containing media (7PA2 cells) induced synaptic toxicity at 100 nM; type: functional, cell-based
# [11] = Cytotoxicity against Sprague-Dawley rat primary hippocampal cells at 100 nM; type: toxicity, cell-based; settings: hippocampal neurone, 0.1 µM
# Hippocampal neurone [12] = assay: as §1, with “functional synapses by measuring decrease in SynI clustering level” for “synaptic toxicity”; type: cell-based
# Hippocampal neurone [13] = assay: as §1, with “microgliosis (Iba1)” for “synaptic toxicity”, “500” for “100”, “nM by immunostaining analysis” for “nM”; type: functional, cell-based
# Hippocampal neurone [14] = assay: as §1, with “astrogliosis (GFAP)” for “synaptic toxicity”, “500” for “100”, “nM by immunostaining analysis” for “nM”; type: functional, cell-based
# Sequence of Short transient receptor potential channel 1 (Mus musculus) (Q61056 whole entry): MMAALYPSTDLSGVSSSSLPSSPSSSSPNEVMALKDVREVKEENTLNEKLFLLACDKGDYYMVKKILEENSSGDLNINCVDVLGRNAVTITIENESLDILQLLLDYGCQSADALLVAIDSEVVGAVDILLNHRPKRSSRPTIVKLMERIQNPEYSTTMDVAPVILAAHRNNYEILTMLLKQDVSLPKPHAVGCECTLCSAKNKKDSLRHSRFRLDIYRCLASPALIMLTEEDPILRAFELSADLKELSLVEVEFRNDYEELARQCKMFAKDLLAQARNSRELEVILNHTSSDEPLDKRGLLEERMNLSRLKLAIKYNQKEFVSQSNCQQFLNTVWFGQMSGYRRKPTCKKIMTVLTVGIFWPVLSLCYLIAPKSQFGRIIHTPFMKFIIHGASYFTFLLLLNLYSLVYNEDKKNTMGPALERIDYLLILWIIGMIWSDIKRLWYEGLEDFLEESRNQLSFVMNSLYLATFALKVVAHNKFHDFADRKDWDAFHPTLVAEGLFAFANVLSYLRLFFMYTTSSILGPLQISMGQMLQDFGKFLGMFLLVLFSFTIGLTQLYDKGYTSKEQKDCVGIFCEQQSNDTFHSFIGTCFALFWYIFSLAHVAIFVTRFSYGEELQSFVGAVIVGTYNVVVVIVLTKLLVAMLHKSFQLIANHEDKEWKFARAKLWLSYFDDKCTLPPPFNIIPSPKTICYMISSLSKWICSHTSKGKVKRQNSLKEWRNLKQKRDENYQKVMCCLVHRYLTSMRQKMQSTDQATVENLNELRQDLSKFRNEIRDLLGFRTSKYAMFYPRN
# Sequence of Cytochrome P450 3A4 (P08684 whole entry): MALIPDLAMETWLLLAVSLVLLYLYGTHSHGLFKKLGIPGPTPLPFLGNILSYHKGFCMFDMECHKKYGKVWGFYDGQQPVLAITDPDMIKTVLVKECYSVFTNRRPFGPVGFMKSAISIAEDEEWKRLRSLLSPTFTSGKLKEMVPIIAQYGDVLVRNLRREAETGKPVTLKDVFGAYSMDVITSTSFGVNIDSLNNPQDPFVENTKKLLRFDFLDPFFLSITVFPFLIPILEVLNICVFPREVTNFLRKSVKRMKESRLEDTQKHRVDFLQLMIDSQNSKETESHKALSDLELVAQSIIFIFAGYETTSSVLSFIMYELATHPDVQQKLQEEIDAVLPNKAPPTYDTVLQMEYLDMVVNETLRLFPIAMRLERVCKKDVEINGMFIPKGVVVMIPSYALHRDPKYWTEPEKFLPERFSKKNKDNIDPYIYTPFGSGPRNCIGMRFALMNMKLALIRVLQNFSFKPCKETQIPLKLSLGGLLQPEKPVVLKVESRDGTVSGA
# Sequence of Transient receptor potential cation channel subfamily M member 8 (Rattus norvegicus) (Q8R455 whole entry, looked up): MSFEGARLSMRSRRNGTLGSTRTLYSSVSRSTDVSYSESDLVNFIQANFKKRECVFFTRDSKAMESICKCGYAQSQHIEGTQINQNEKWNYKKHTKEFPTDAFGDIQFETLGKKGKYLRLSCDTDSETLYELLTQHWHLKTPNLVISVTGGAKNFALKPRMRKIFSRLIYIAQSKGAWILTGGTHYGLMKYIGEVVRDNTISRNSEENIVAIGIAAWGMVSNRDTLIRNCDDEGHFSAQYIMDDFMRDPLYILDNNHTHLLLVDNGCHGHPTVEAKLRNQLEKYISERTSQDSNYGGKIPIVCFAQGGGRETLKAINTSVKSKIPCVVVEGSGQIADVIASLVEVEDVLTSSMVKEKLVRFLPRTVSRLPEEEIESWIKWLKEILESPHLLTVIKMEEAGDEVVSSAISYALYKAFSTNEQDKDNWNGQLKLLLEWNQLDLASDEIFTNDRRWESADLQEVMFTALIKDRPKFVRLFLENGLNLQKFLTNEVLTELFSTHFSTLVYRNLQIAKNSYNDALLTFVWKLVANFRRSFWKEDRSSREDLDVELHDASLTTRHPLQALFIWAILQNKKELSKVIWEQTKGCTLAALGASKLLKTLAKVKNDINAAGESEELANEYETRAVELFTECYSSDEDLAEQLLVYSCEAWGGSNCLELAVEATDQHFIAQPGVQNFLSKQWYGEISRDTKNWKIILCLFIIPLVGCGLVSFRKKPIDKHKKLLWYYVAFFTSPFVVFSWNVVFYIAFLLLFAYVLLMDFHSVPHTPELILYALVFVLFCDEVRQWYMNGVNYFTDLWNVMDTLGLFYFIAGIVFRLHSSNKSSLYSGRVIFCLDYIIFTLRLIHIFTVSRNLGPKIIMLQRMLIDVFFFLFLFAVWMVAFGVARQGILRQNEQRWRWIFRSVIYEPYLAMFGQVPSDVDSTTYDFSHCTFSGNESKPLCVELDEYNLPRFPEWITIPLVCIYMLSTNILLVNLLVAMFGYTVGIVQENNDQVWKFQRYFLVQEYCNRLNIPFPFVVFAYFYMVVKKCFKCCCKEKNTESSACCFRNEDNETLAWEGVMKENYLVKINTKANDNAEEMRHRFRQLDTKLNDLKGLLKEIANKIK
# Sequence of Short transient receptor potential channel 1 (Rattus norvegicus) (Q9QX01 whole entry): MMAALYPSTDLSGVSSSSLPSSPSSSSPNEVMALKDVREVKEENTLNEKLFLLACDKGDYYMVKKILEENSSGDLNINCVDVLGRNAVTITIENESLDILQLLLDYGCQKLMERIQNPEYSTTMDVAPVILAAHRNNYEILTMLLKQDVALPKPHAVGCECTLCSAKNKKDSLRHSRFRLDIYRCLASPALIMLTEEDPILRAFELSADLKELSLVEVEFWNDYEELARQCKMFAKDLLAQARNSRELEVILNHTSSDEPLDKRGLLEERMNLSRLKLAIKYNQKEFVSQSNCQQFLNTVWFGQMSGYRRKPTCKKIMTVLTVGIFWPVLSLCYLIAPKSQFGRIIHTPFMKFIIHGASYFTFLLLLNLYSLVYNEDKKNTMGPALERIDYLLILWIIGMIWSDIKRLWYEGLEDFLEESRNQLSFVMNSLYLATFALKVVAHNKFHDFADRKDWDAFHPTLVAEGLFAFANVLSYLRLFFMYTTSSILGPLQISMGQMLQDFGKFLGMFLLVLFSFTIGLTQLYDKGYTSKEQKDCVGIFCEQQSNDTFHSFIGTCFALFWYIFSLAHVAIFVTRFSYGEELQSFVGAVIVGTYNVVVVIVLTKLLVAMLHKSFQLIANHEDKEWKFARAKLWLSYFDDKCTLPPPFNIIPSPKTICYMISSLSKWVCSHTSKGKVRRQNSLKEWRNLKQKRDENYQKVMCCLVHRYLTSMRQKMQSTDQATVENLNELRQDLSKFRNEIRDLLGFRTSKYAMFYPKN
compound,measurement,setting,value
CCNCc1cnn(-c2ccc(-n3ccc(Cl)c(Cl)c3=O)cc2)c1C(F)(F)F,inhibition,[1],> 97%
same,Activity,[2],inactive
same,Activity,[3],inactive
same,Activity,[4],inactive
same,Activity,[5],inactive
same,solubility kinetic at 24 h,[6],0.2 µM
same,t1/2,[7],3.17 h
same,CLH,[8],3.73 µL/min/mg
same,t1/2,[9],0.35 h
same,IC50,Cytochrome P450 3A4,> 50 µM
same,Activity,Hippocampal neurone [10],Active
same,Activity,[11],Non-toxic
same,Activity,Hippocampal neurone [12],Active
same,Activity,Hippocampal neurone [13],Active
same,Activity,Hippocampal neurone [14],Active

# Reference: ChEMBL document CHEMBL6078670, “Discovery of a potent and selective TRPC3 antagonist with neuroprotective effects” (Bioorg Med Chem, 2025)
